Laboratory results reported in publication PMC9551036, “A selective and orally bioavailable VHL-recruiting PROTAC achieves SMARCA2 degradation in vivo” (Nature Communications, 2022).
“And” between values parts separate entries of the source, which are not always exact repeats. Equal entries are not always repeated. Where two headings read alike, the source gives them in different places.

Legend:
KRT80 mRNA = test: qPCR for KRT80 mRNA levels in A549 and NCI-H1568 cells; type: cell-based, human; settings: for EC50: Homo sapiens
Procedure: 350,000–500,000 cells were seeded in 6-well plates and compounds were added the next day at the indicated concentrations after pre-dilution in medium. Cells were incubated for 18 h, harvested, and RNA was extracted using the RNeasy Mini Kit (Qiagen) according to manufacturer’s instructions. A DNAse digestion step was included. 1 µg RNA was used for cDNA synthesis with the SuperScript VILO cDNA synthesis kit (Invitrogen) according to manufacturer’s instructions. TAQMAN qPCR was then performed using the QuantiTect Multiplex PCR kit (Qiagen) with probes for KRT80 (Hs01372365_m1, Applied Biosystems) and human GAPDH as endogenous control (4326317E, VIC/MGB probe, Primer Limited) for normalisation in a duplex assay over 45 cycles with 100 ng cDNA input. […] Curves were fitted using a 4-parametric logistic model.

A549 tumour xenograft = test: A549 xenograft tumour growth; type: in vivo, mouse; settings: for Tumor volume: Fig4g, 80 mg/kg, qd, per animal
Procedure: To establish subcutaneous tumours, mice were injected with 5 × 10^6 NCI-H1568 in PBS with 5% FCS or with 1 × 10^7 A549 cells in PBS with 5% FCS. Tumour diameters were measured with a caliper three times a week. The volume of each tumour (in mm^3) was calculated according to the formula [tumour volume = length × diameter^2 × π/6]. To monitor side effects of treatment, mice were inspected daily for abnormalities and body weight was determined daily after the start of treatment. Animals were sacrificed when the tumours reached a size of 1500 mm^3. Mice were randomised into treatment groups when the average tumour size reached ~210–220 mm^3. Group sizes were calculated individually for each tumour model based on tumour growth during model establishment experiments. A power analysis was performed using a sample size calculator (https://www.stat.ubc.ca/~rollin/stats/ssize/n2.html). For both models used in the study, 10 mice per group were used for each experiment. All administrations were dosed with 10 ml/kg (s.c. and oral). Control mice were dosed subcutaneously with 10% HP-β-CD in 50% Ringer solution and orally with 15% HP-β-CD, that means the control mouse treatment was corresponding to the solvent of the compounds. Compound 6 was dosed subcutaneously either in a d1-4 q3d, d6-8 q2d, d11-13 q2d treatment (Treatment 1) or a q3 or 4d treatment (Treatment 2).
For the evaluation of the statistical significance of tumour growth inhibition, a one-tailed nonparametric Mann-Whitney-Wilcoxon U-test was performed, based on the hypothesis that an effect would only be measurable in one direction (i.e. expectation of tumour inhibition but not tumour stimulation). Analysis was performed on the day indicated for each experiment. The p values obtained from the U-test were adjusted using the Bonferroni-Holm correction. By convention, p values ≤0.05 indicate significance of differences.

SMARCA4 = SMARCA4 (Homo sapiens, UniProt P51532); test: Ex vivo human whole blood assay, SMARCA4; type: cell-based; set-up: endogenous in cells; settings: for HillSlope (best-fit value): four-parameter fit; for Bottom (best-fit value) / Span (best-fit value) / Top (best-fit value): four-parameter fit of % protein remaining
Procedure: The assay was performed on human whole blood from three healthy donors, purchased from the Austrian Red Cross who always obtain samples under informed consent. […] Subsequently, peripheral blood mononucleated cells (PBMCs) were isolated from individual aliquots using SepMate Tubes (StemCell) and Lymphoprep (StemCell) medium according to the manufacturer’s instructions and protein lysates were prepared using MSD Lysis buffer (Mesocale Discovery) supplemented with 1:100 Halt Phosphatase-Protease Inhibitor Cocktail (Thermo Fisher), 0.5 µl/ml benzonase (Novagen) and 10 mM DTT. SMARCA2 and SMARCA4 protein levels were determined using capillary electrophoresis (Bio-Techne) according to manufacturer’s instructions. Incubation with primary antibodies for SMARCA2 (Cell Signalling #11966 clone D9E8B RRID:AB_2797783 1:25), SMARCA4 (Abcam #ab110641 clone EPNCIR111A RRID:AB_10861578 1:25) and GAPDH (Abcam, #ab9485 RRID:AB_307275 1:1000) were performed for 30 min.

Chain of SMARCA4 (P51532 whole entry): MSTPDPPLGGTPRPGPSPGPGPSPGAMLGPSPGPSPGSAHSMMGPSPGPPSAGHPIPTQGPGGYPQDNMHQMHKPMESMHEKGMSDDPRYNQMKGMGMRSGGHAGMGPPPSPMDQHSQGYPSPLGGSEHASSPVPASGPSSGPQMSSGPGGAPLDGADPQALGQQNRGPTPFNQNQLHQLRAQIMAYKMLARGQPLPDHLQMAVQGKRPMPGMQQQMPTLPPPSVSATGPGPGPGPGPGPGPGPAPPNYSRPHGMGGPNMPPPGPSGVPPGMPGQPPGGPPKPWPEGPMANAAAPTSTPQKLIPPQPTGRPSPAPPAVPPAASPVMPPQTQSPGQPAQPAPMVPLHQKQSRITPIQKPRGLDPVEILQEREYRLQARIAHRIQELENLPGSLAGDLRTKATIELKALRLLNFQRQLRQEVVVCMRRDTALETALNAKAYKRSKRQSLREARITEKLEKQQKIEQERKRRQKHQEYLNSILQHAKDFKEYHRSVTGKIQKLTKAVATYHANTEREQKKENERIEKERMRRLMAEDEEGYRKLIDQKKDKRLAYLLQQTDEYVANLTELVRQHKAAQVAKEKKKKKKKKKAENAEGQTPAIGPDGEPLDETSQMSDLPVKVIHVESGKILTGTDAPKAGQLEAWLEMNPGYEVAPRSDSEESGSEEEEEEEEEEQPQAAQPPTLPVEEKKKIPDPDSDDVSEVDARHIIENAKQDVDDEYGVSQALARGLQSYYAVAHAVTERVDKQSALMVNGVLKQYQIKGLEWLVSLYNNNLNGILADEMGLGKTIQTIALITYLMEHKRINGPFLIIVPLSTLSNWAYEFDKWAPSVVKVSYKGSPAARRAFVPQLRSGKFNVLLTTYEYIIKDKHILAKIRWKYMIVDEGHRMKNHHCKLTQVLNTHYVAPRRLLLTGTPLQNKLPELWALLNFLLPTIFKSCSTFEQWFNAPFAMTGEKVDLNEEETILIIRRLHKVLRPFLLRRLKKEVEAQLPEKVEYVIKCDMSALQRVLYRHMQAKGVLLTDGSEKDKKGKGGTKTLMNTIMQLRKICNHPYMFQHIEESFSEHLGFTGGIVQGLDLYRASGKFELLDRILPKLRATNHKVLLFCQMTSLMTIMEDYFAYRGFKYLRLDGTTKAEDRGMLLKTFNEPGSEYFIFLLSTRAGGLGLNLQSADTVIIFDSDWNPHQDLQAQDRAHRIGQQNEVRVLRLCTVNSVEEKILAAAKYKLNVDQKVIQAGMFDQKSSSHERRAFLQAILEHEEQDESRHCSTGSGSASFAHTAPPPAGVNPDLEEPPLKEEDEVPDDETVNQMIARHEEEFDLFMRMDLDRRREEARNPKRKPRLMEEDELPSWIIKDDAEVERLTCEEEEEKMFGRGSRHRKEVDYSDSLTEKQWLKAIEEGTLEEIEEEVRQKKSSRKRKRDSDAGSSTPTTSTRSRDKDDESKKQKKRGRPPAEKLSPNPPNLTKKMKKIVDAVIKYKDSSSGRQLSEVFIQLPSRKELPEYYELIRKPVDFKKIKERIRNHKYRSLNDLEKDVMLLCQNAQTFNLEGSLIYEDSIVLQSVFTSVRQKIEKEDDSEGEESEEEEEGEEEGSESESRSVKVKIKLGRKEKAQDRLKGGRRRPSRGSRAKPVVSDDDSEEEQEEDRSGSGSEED

Cc1ncsc1-c1ccc(C(CCC(C)CCN2CCC(c3ccc4c(c3)n(C3CCCC3)c3nc(=O)c5c(Br)cccc5n43)CC2)NC(=O)C2CC(O)CN2C(=O)C(NC(=O)C2(F)CC2)C(C)(C)C)cc1 (stereo not shown) [ACBI2]
KRT80 mRNA levels (KRT80 mRNA; 18 h treatment): decreased mRNA levels of KRT80 | Bottom (% KRT80 mRNA, four-parameter fit) (KRT80 mRNA; A549): 1.487% | HillSlope (KRT80 mRNA) (KRT80 mRNA; A549): -1.195 | Top (% KRT80 mRNA, four-parameter fit) (KRT80 mRNA; A549): 88.72% | % KRT80 mRNA (KRT80 mRNA; A549, conc 1e-10 mol/l): 68.3704% | % KRT80 mRNA (KRT80 mRNA; A549, conc 3.2e-10 mol/l): 113.907% | % KRT80 mRNA (KRT80 mRNA; A549, conc 1e-9 mol/l): 83.7736% | % KRT80 mRNA (KRT80 mRNA; A549, conc 1.6e-9 mol/l): 68.0813% | % KRT80 mRNA (KRT80 mRNA; A549, conc 8e-9 mol/l): 32.1733% | % KRT80 mRNA (KRT80 mRNA; A549, conc 1e-8 mol/l): 59.5378% | % KRT80 mRNA (KRT80 mRNA; A549, conc 4e-8 mol/l): 6.155% | % KRT80 mRNA (KRT80 mRNA; A549, conc 1e-7 mol/l): 5.176% | % KRT80 mRNA (KRT80 mRNA; A549, conc 2e-7 mol/l): 3.074% | % KRT80 mRNA (KRT80 mRNA; A549, conc 1e-6 mol/l): 3.879% and 3.0631% | EC50 (KRT80 mRNA; A549, read-out: EC50 (KRT80 mRNA)): 8.27 nM | EC50 (KRT80 mRNA; A549, read-out: LogEC50 (KRT80 mRNA) (converted)): 8.26 nM | EC50 (KRT80 mRNA; NCI-H1568, read-out: EC50 (KRT80 mRNA)): 9.77 nM | EC50 (KRT80 mRNA; NCI-H1568, read-out: LogEC50 (KRT80 mRNA) (converted)): 9.77 nM | Bottom (% KRT80 mRNA, four-parameter fit) (KRT80 mRNA; NCI-H1568): 16.16% | Top (% KRT80 mRNA, four-parameter fit) (KRT80 mRNA; NCI-H1568): 89.57% | % KRT80 mRNA (KRT80 mRNA; NCI-H1568, conc 1e-10 mol/l): 84.6925% | % KRT80 mRNA (KRT80 mRNA; NCI-H1568, conc 1.6e-9 mol/l): 88.1629% | % KRT80 mRNA (KRT80 mRNA; NCI-H1568, conc 8e-9 mol/l): 95.8588% | % KRT80 mRNA (KRT80 mRNA; NCI-H1568, conc 1e-8 mol/l): 27.1635% | % KRT80 mRNA (KRT80 mRNA; NCI-H1568, conc 4e-8 mol/l): 13.5152% | % KRT80 mRNA (KRT80 mRNA; NCI-H1568, conc 1e-7 mol/l): 10.7775% | % KRT80 mRNA (KRT80 mRNA; NCI-H1568, conc 2e-7 mol/l): 11.1934% | % KRT80 mRNA (KRT80 mRNA; NCI-H1568, conc 1e-6 mol/l): 17.4529% and 27.8788% | TGI (A549 tumour xenograft; A549 xenograft, 80 mg/kg p.o. once daily, day 21): 47% | Tumor volume (A549 tumour xenograft; day 1): 123.81 mm3 and 132.68 mm3 and 160.75 mm3 and 185.14 mm3 and 199.53 mm3 and 221.26 mm3 and 231.03 mm3 and 289.04 mm3 and 318.82 mm3 and 328.35 mm3 | Tumor volume (A549 tumour xenograft; day 4): 227.06 mm3 and 262.12 mm3 and 188.92 mm3 and 409.05 mm3 and 274.16 mm3 and 314.25 mm3 and 306.21 mm3 and 369.92 mm3 and 481.58 mm3 and 366.82 mm3 | Tumor volume (A549 tumour xenograft; day 7): 231.98 mm3 and 243.18 mm3 and 196.23 mm3 and 274.16 mm3 and 253.11 mm3 and 344.34 mm3 and 317.61 mm3 and 448.55 mm3 and 592.88 mm3 and 312.54 mm3 | Tumor volume (A549 tumour xenograft; day 9): 261.94 mm3 and 301.83 mm3 and 219.73 mm3 and 302.82 mm3 and 326.12 mm3 and 416.63 mm3 and 335.28 mm3 and 487.15 mm3 and 592.89 mm3 and 371.89 mm3 | Tumor volume (A549 tumour xenograft; day 11): 258.58 mm3 and 202.63 mm3 and 223.15 mm3 and 242.18 mm3 and 278.14 mm3 and 355.98 mm3 and 334.2 mm3 and 464.77 mm3 and 688.26 mm3 and 480.94 mm3 | Tumor volume (A549 tumour xenograft; day 16): 301.85 mm3 and 268.43 mm3 and 297.84 mm3 and 244.81 mm3 and 221.75 mm3 and 393.39 mm3 and 329.71 mm3 and 573.4 mm3 and 713.65 mm3 and 552.3 mm3 | Tumor volume (A549 tumour xenograft; day 18): 316.56 mm3 and 265.75 mm3 and 265.54 mm3 and 297.93 mm3 and 440.11 mm3 and 297.45 mm3 and 522.76 mm3 and 814.33 mm3 and 590.82 mm3 | Tumor volume (A549 tumour xenograft; day 21): 331.26 mm3 and 257.14 mm3 and 246.03 mm3 and 472.38 mm3 and 341.87 mm3 and 428.61 mm3 and 821.5 mm3 and 487.26 mm3 | Tumor volume (A549 tumour xenograft; day 23): 322.32 mm3 and 225.79 mm3 and 259.68 mm3 and 527.19 mm3 and 270.43 mm3 and 777.27 mm3 and 455.64 mm3 | % protein remaining, SMARCA4 (SMARCA4; Donor 1, log10[concentration (mol/l)] -6): 46.277% and 56.0869% and 48.4826% | % protein remaining, SMARCA4 (SMARCA4; Donor 1, log10[concentration (mol/l)] -6.47712): 107.389% and 70.5686% and 73.1116% | % protein remaining, SMARCA4 (SMARCA4; Donor 1, log10[concentration (mol/l)] -6.95424): 84.4427% and 113.429% and 101.258% | % protein remaining, SMARCA4 (SMARCA4; Donor 1, log10[concentration (mol/l)] -7.43136): 119.708% and 145.145% and 104.637% | % protein remaining, SMARCA4 (SMARCA4; Donor 1, log10[concentration (mol/l)] -7.90848): 127.921% and 114.745% and 82.4839% | % protein remaining, SMARCA4 (SMARCA4; Donor 1, log10[concentration (mol/l)] -8.38561): 104.578% and 95.4334% and 80.9398% | HillSlope (best-fit value) (SMARCA4; Donor 1 SMARCA4): -2.117 | Bottom (best-fit value) (SMARCA4; Donor 1 SMARCA4): 40.33% | Span (best-fit value) (SMARCA4; Donor 1 SMARCA4): 66.56% | Top (best-fit value) (SMARCA4; Donor 1 SMARCA4): 106.9% | % protein remaining, SMARCA4 (SMARCA4; Donor 2, log10[concentration (mol/l)] -6): 50.102% and 76.224% and 84.3004% | % protein remaining, SMARCA4 (SMARCA4; Donor 2, log10[concentration (mol/l)] -6.47712): 93.5183% and 92.0167% and 75.7642% | % protein remaining, SMARCA4 (SMARCA4; Donor 2, log10[concentration (mol/l)] -6.95424): 80.3377% and 113.951% and 102.967% | % protein remaining, SMARCA4 (SMARCA4; Donor 2, log10[concentration (mol/l)] -7.43136): 130.957% and 130.042% and 111.295% | % protein remaining, SMARCA4 (SMARCA4; Donor 2, log10[concentration (mol/l)] -7.90848): 121.533% and 102.344% and 98.5667% | % protein remaining, SMARCA4 (SMARCA4; Donor 2, log10[concentration (mol/l)] -8.38561): 105.689% and 139.901% and 105.419% | % protein remaining, SMARCA4 (SMARCA4; Donor 2, log10[concentration (mol/l)] -8.86273): 54.3169% and 99.7184% and 98.048% | HillSlope (best-fit value) (SMARCA4; Donor 2 SMARCA4): -2.11 | Bottom (best-fit value) (SMARCA4; Donor 2 SMARCA4): 67.18% | Span (best-fit value) (SMARCA4; Donor 2 SMARCA4): 40.18% | Top (best-fit value) (SMARCA4; Donor 2 SMARCA4): 107.4% | % protein remaining, SMARCA4 (SMARCA4; Donor 3, log10[concentration (mol/l)] -6.47712): 88.0329% and 79.2762% and 67.3837% | % protein remaining, SMARCA4 (SMARCA4; Donor 3, log10[concentration (mol/l)] -6.95424): 92.9994% and 98.4764% and 74.8427% | % protein remaining, SMARCA4 (SMARCA4; Donor 3, log10[concentration (mol/l)] -7.43136): 95.6107% and 82.1879% and 123.028% | % protein remaining, SMARCA4 (SMARCA4; Donor 3, log10[concentration (mol/l)] -7.90848): 125.23% and 122.739% and 76.3116% | % protein remaining, SMARCA4 (SMARCA4; Donor 3, log10[concentration (mol/l)] -8.38561): 96.5427% and 109.291% and 74.8647% | % protein remaining, SMARCA4 (SMARCA4; Donor 3, log10[concentration (mol/l)] -8.86273): 92.1949% and 111.194% and 102.774% | HillSlope (best-fit value) (SMARCA4; Donor 3 SMARCA4): -1.413 | Bottom (best-fit value) (SMARCA4; Donor 3 SMARCA4): 61.66% | Span (best-fit value) (SMARCA4; Donor 3 SMARCA4): 39.83% | Top (best-fit value) (SMARCA4; Donor 3 SMARCA4): 101.5% | SMARCA4 degradation in human whole blood (SMARCA4; up to a top concentration of 1 µM): ≤ 50%
